Data set [1] deals with T1, CCR5 (Homo sapiens, UniProt P51681).
T1 construct: expressed in transfected cells
As to the kind of experiment: Cell-cell fusion assay (CCF assay, CCR5-mediated fusion). Format: cell-based. Particulars: for inhibition at 10 µM: CCR5, read-out: inhibition rate (10 µM), CCR5 fusion activity; for inhibition at 10 µM / IC50 / inhibition rate (10 µM), CCR5 fusion activity: mean of at least two experiments, DMSO as negative control; for fold loss of CCR5 fusion potency in comparison to 9e: relative to 9e. The source says:
A total of 21 novel piperazine derivatives 9a–h, 13a–d, 17, and 23a–h were screened for their inhibitory activity against cell-cell fusion between target cells expressing CD4/CCR5 and effector cells expressing the envelope protein of HIV-1, gp-120 (fusion assay).
Effector cell line: This cell line express HIV envelope protein gp160 and chimera protein Rn-Dn. Rn-Dn is consist of the N terminal of renilla luciferase and the N terminal of DnaE intein from Anacystis nidulans R2 PCC7942.
Target cell line: This cell line express chemokine receptor 5(CCR5), CD4 protein and chimera protein Dc-Rc. Dc-Rc is consist of the C teminal of renilla luceferase and the C teminal of NnaE intein from Anacystis nidulans R2 PCC7942.
The cell-cell fusion assay was performed as described previously.The effector cells were plated in 24 well white culture plates at 7.5×10^4 cell per well in DMEM supplemented with 10% FBS, 800 µg/mL G418. The target cells in the growth medium were then added to the plates at 7.5×10^4 cells/50 µL/well and incubated for 5 hours. At the end of coculture, 70 µL of renilla luceferase assay lysis was added into each well, and the cultures were gently shaken for 15 min. At the same time, add 20 µl of Renilla Luciferase Assay Reagent to the luminometer tube. Add 20 µl of cell lysate to the tube. Mix quickly by flicking the tube for 1 second. Place the tube in FB12 luminometer and initiate measurement. Luminescence was integrated over 1 second with a 2-second delay. When small molecule compounds needed to be added to the CCF assay system, the compounds were diluted manually in DMSO. Then, 10 µL of the diluted compounds was added to the effector cells just before the addition of target cells, thus making the final concentration of DMSO in the coculture 0.5%.

Data set [2] deals with recombinant HIV-1 virus pseudotyped with the envelope proteins of the CCR5-tropic virus. The experiment in a line: microbe, parasite or virus in culture. Format: cell-based. The following applies: for inhibition at 10 µM: Human immunodeficiency virus 1, SUP-T1, read-out: inhibition rate (10 µM), antiviral activity. The method, then:
Fluorophenyl analogs 9e–g, phenyl, chlorophenyl, and trifluorophenyl analog 23a–c, and cyclohexyl analog 23 h were evaluated for their anti-HIV activity using a recombinant HIV-1 virus pseudotyped with the envelope proteins of the CCR5-tropic virus (HIV-1 single cycle antiviral assay). For overall estimation of the therapeutic potential of these novel CCR5 antagonists, maraviroc was used as a positive control.
HIV-1 proviral indicator construct pNL-Luc-E- contains a full-length HIV-1 genome, in which env was replaced by firefly Luciferase coding sequence. pENV-Ad8 expresses R5-tropic envelope (AD8).
Single-cycle HIV-1 replication assays were performed as described previously. In brief, 4×10^5 293T cells were co-transfected with 0.4 µg of pNL-Luc-E- and 0.4 µg of pENV-R5. After 48h, the supernatant containing pseudovirion was harvested by filtration through a 0.45 µm filter and the amount of viral capsid protein was measured by p24 antigen capture ELISA (Biomerieux). The resultant supernatant (10 µL) was used to infect SupT1 cells (1×10^5) in 96-well plates in the presence of testing compound at the concentration indicated. The SupT1 cells were lysed 48h post-infection and firefly luciferase activities were determined using a firefly Luciferase Assay System (Promega). Values were normalized to the control group treated with DMSO, and represented relative infectivity of each sample testing.

Setting [3] is: mean of two experiments, DMSO as negative control.

Entries after “also recorded” stand apart in the source; their conditions may differ. Where two headings read alike, the source gives them in different places.

22 molecules from publication PMC3538727, “Design, Synthesis and Biological Evaluation of Novel Piperazine Derivatives as CCR5 Antagonists” (PLoS ONE, 2013) can be followed below.

T1 sequence (P51681 whole entry): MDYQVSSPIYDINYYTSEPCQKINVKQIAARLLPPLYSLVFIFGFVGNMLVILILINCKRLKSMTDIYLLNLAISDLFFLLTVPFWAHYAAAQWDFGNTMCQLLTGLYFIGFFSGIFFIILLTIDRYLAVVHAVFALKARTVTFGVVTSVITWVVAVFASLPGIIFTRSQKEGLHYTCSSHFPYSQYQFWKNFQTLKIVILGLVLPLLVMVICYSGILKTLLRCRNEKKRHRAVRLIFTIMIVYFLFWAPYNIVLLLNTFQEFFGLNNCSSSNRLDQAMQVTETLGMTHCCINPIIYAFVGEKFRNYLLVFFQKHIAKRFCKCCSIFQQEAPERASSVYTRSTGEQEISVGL

On to `Cc1ccc(N2CCN(CCC(NC(=O)c3ccccc3)c3ccccc3)CC2)cc1` (centres unmarked) [Compound 9a], for which the melting point (usually the temperature of the solid-liquid transition) lay in the range of 165 to 167 °C. The inhibition (in general, the change of the read-out against control, counted positive when it falls) at 10 µM in data set [1] stood at 47%.

In the case of `Cc1ccc(N2CCN(CCC(NC(=O)c3ccc(F)cc3)c3ccccc3)CC2)cc1` (centres unmarked) [Compound 9b], the melting point was in the range of 171 to 173 °C. Further, in data set [1], the inhibition at 10 µM stood at 35%.

On to `O=C(NC(CCN1CCN(c2ccc(F)cc2)CC1)c1ccccc1)c1ccc(F)cc1` (centres unmarked) [Compound 9c], for which the melting point was in the range of 157 to 159 °C. The inhibition at 10 µM in data set [1] is 41%.

The molecule `O=C(NC(CCN1CCN(c2ccc(F)cc2)CC1)c1ccccc1)c1ccccc1` (centres unmarked) [Compound 9d] had a melting point of 152 to 154 °C. In data set [1], the inhibition at 10 µM is 26%.

In turn, `N#Cc1ccc(N2CCN(CCC(NC(=O)c3ccc(F)cc3)c3ccccc3)CC2)cc1` (centres unmarked) [Compound 9e] displayed a melting point of 160 to 162 °C. Also, 0.64 µM corresponded to half-maximal inhibition in data set [1] (IC50). Moreover, the “inhibition rate (10 µM), antiviral activity” value in data set [2] (setting [3]) was “weak anti-HIV activity”. Further, the inhibition at 10 µM in data set [2] amounted to 23.8%.

For the molecule `N#Cc1ccc(N2CCN(CCC(NC(=O)c3ccc(F)cc3)c3ccc(Cl)cc3)CC2)cc1` (centres unmarked) [Compound 9f], the melting point fell in the range of 121 to 123 °C. Further, in data set [1], inhibition was half-maximal at 3.7 µM (IC50) and the “fold loss of CCR5 fusion potency in comparison to 9e” value (shortened to “fold loss of CCR5 fusion potency”) turned out to be 5 fold. Besides, the “inhibition rate (10 µM), antiviral activity” value in data set [2] (setting [3]) was “inactive”.

Turning to `N#Cc1ccc(N2CCN(CCC(NC(=O)c3ccc(F)cc3)c3ccc(Cl)c(Cl)c3)CC2)cc1` (centres unmarked) [Compound 9g], the melting point was in the range of 85 to 88 °C. Besides, in data set [1], the IC50 – broadly, the concentration needed to halve the response being measured – stood at 10 µM and the “fold loss of CCR5 fusion potency” value was “more than 15 fold”. Besides, in data set [2], the inhibition at 10 µM came to 2.9%.

With `NC(=O)c1ccc(N2CCN(CCC(NC(=O)c3ccc(F)cc3)c3ccccc3)CC2)cc1` (centres unmarked) [Compound 9h], in data set [1], the inhibition at 10 µM was 20%.

Molecule `N#CCc1ccc(N2CCN(CCC(NC(=O)c3ccc(F)cc3)c3ccccc3)CC2)cc1` (centres unmarked) [Compound 13a] returned a melting point of 115 to 119 °C. Moreover, the “inhibition rate (10 µM), CCR5 fusion activity” value in data set [1] was “inactive”.

Molecule `N#Cc1ccc(C(=O)N2CCN(CCC(NC(=O)c3ccc(F)cc3)c3ccccc3)CC2)cc1` (centres unmarked) [Compound 13b] gave a melting point of 80 to 84 °C. The inhibition at 10 µM in data set [1] was 22%.

In turn, `N#Cc1ccc(CN2CCN(CCC(NC(=O)c3ccc(F)cc3)c3ccccc3)CC2)cc1` (centres unmarked) [Compound 13c] yielded a melting point of 83 to 87 °C. For the same molecule, the “inhibition rate (10 µM), CCR5 fusion activity” value in data set [1] is “inactive”.

With `N#Cc1ccc(N2CCN(C(=O)CC(NC(=O)c3ccc(F)cc3)c3ccccc3)CC2)cc1` (centres unmarked) [Compound 13d, N-(3-(4-(4-cyanophenyl)piperazin-1-yl)-3-oxo-1-phenylpropyl)-4-fluoro-benzamide], the melting point was 98 to 102 °C. For the same molecule, the inhibition at 10 µM in data set [1] was 25%.

Regarding `N#Cc1ccc(N2CCN(CCCN(C(=O)c3ccc(F)cc3)c3ccccc3)CC2)cc1` [Compound 17, N-(3-(4-(4-cyanophenyl)piperazin-1-yl)propyl)-4-fluoro-N-phenylbenzamide], the melting point lay within 82 to 84 °C. In data set [1], the “inhibition rate (10 µM), CCR5 fusion activity” value was “inactive”.

The molecule `N#Cc1ccc(N2CCN(CCC(NC(=O)c3ccccc3)c3ccccc3)CC2)cc1` (centres unmarked) [Compound 23a] registered a melting point of 152 to 155 °C. In data set [1], 2.44 µM corresponded to half-maximal inhibition (IC50) and the “fold loss of CCR5 fusion potency” value came out at 4 fold. In addition, the inhibition at 10 µM in data set [2] was found to be 28.9%.

Take `N#Cc1ccc(N2CCN(CCC(NC(=O)c3ccc(Cl)cc3)c3ccccc3)CC2)cc1` (centres unmarked) [Compound 23b]: the melting point was 143 to 145 °C. Also, in data set [1], the IC50 came out at 2.87 µM and the “fold loss of CCR5 fusion potency” value is reported as 5 fold. In addition, the inhibition at 10 µM in data set [2] amounted to 29.9%.

In turn, `N#Cc1ccc(N2CCN(CCC(NC(=O)c3ccc(C(F)(F)F)cc3)c3ccccc3)CC2)cc1` (centres unmarked) [Compound 23c] gave a melting point of 158 to 160 °C. Further, in data set [1], the concentration for half-maximal inhibition (IC50) was found to be 10 µM and the “fold loss of CCR5 fusion potency” value is given as 15 fold. Besides, the inhibition at 10 µM in data set [2] came to 24.6%.

`CC(C)c1ccc(C(=O)NC(CCN2CCN(c3ccc(C#N)cc3)CC2)c2ccccc2)cc1` (centres unmarked) [Compound 23d] had a melting point of 155 to 158 °C. For the same molecule, in data set [1], the inhibition at 10 µM was 20%.

The molecule `CC(=O)N1CCC(C(=O)NC(CCN2CCN(c3ccc(C#N)cc3)CC2)c2ccccc2)CC1` (centres unmarked) [Compound 23e] returned a melting point of 100 to 105 °C. Moreover, in data set [1], the “inhibition rate (10 µM), CCR5 fusion activity” value was “complete loss in fusion activity; also recorded: inactive”.

Consider `N#Cc1ccc(N2CCN(CCC(NC(=O)C3CCN(C(=O)c4ccccc4)CC3)c3ccccc3)CC2)cc1` (centres unmarked) [Compound 23f], for which the melting point was 121 to 124 °C. Also, in data set [1], the inhibition at 10 µM was 15%.

As to `N#Cc1ccc(N2CCN(CCC(NC(=O)c3ccco3)c3ccccc3)CC2)cc1` (centres unmarked) [Compound 23g], the melting point is 132 to 136 °C. Also, the “inhibition rate (10 µM), CCR5 fusion activity” value in data set [1] is “inactive”.

For `N#Cc1ccc(N2CCN(CCC(NC(=O)C3CCCCC3)c3ccccc3)CC2)cc1` (centres unmarked) [Compound 23h], the IC50 in data set [1] came to 6.29 µM; in data set [2] (Human immunodeficiency virus 1, SUP-T1, read-out: IC50 (µM), antiviral activity) it was 0.44 µM. Further, in data set [2], the inhibition at 10 µM worked out at 66.5%.

maraviroc [reference compound]: in data set [2] (setting [3]), the “inhibition rate (10 µM), antiviral activity” value was 96.8%. In addition, the IC50 in data set [2] (read-out: IC50 (µM), antiviral activity, mean of two experiments, DMSO as negative control) was found to be 0.0011 µM.
